Measurements from patent US20170266213A1, “USE OF BETA-NICOTINAMIDE MONONUCLEOTIDE IN PREPARATION OF ANTI-AGING DRUGS OR HEALTH-CARE PRODUCTS” (BONTAC BIO-ENGINEERING (SHENZHEN) CO., LTD, priority 2015, published 2017).

Test system: Kunming mice (aged about 52 weeks)
Experiment: Mouse survival test
Type: in vivo
Protocol: 1.1 Experimental material: β-nicotinamide mononucleotide (NMN)
1.2 Experimental animal: Kunming mice (aged about 52 weeks)
1.3 Administration method:
Blank group: fed on full diet;
Treatment group: fed on full diet supplemented with NMN (containing adjuvants) fully dissolved in water, where a single dose of NMN is 20 mg/Kg body weight/day;
Control group: fed on full diet supplemented with adjuvants equivalent to those in the Treatment group;
Mouse survival test: […] aged 52 weeks were assigned to two groups (that is, a blank control group and a treatment group) at random, each group having 40 animals.
Experimental method: see Function Evaluation procedures and Specification of test methods for health food—(2003 Edition, the Ministry of Health).

## NC(=O)c1ccc[n+]([C@@H]2O[C@H](COP(=O)([O-])O)[C@@H](O)[C@H]2O)c1 [NMN, β-nicotinamide mononucleotide]
NMN 20 mg/Kg body weight/day, versus blank and control groups (Table 1)
  extension of the lifespan of mice: about 29%
Aged 52 weeks at start, NMN 20 mg/Kg body weight/day in full diet, 100 weeks
  Morbility over 100 weeks (%): 38%
Aged 52 weeks at start, NMN 20 mg/Kg body weight/day in full diet, 120 weeks
  Morbility over 120 weeks (%): 52%
Aged 52 weeks at start, NMN 20 mg/Kg body weight/day in full diet, 140 weeks
  Morbility over 140 weeks (%): 61%
Aged 52 weeks at start, NMN 20 mg/Kg body weight/day in full diet, 160 weeks
  Morbility over 160 weeks (%): 74%
Aged 52 weeks at start, NMN 20 mg/Kg body weight/day in full diet, 180 weeks
  Morbility over 180 weeks (%): 100%
Composition containing NMN
  effect on the lifespan of mice (in words): obviously extend the lifespan of mice
